# Experimental data reported in patent US7709516B2, “Helix 12 directed non-steroidal antiandrogens” (Endorecherche, Inc., priority 2005, dated 2010).
# Where two headings read alike, the source gives them in different places.
# Legend:
# [1] = tested on: Shionogi mouse mammary carcinoma cells; assay: Androgenic/antiandrogenic activity: inhibition of DHT-stimulated Shionogi cell number; type: cell-based; settings: DHT-stimulated Shionogi cell number
# Human Androgen Receptor = target: T1, Human Androgen Receptor (Homo sapiens, UniProt P10275); assay: Androgen receptor binding assay ([3H]R1881, HAP) in cytosol of HEK-293 cells transfected with hAR; settings: relative to R1881 = 100, transfected cells
# T1 sequence (P10275 1-920): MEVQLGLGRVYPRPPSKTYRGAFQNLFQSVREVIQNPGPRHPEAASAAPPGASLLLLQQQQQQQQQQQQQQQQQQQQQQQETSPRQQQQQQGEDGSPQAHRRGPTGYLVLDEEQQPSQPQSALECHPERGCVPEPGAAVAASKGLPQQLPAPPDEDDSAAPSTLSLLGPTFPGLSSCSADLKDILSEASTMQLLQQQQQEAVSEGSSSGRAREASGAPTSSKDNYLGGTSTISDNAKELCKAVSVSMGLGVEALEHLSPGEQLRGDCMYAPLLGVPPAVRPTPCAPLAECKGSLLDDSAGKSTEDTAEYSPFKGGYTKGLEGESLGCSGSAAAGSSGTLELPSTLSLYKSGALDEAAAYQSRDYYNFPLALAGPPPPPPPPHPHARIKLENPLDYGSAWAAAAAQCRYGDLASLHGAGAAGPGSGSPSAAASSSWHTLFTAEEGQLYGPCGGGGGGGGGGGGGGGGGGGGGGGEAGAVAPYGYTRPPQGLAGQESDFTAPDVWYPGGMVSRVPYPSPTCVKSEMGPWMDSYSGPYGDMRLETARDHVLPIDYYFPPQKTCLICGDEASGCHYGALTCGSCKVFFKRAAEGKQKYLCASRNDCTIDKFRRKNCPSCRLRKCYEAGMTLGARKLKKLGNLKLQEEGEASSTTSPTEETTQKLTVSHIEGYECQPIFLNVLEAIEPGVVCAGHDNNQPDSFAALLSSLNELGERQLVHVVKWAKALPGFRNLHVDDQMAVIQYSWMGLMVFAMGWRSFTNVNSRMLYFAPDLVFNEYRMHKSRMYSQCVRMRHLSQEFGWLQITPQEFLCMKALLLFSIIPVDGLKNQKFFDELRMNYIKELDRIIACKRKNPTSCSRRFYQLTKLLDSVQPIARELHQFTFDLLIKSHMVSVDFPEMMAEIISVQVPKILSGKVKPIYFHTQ
# [2] = tested on: rat prostate, seminal vesicle, levator ani muscle; assay: Systemic androgenic activity in orchidectomized immature male rats; type: in vivo; settings: for change in vivo at 0.2 mg: po, 168 h, 0.2 mg/animal daily 7 days
# Description: Column 7 represents the % of androgenic efficacy in rat prostate, expressed in percentage of stimulation:
# W is the weight of the prostate.
# Column 8 represents the % of androgenic efficacy in rat seminal vesicle, expressed in percentage of stimulation:
# W is the weight of the seminal vesicle.
# Column 9 represents the % of androgenic efficacy in rat levator ani muscle, expressed in percentage of stimulation: […]
# Immature male rats (Crl:CD(SD)Br) 22 to 24-day old were obtained from Charles-River, Inc. (St-Constant, Quebec, Canada) and housed up to 5 per cage in plastic bins in a temperature (23±1° C.)— and light (12 h light/day, lights on at 7h15)— controlled environment. The rats were fed rodent chow and tap water ad libitum. The day following their arrival, the animals were orchidectomized (CX) under Isoflurane anesthesia via scrotal route and randomly assigned to groups of 5 animals.
# To evaluate the antiandrogenic activity, tested compounds were administered subcutaneously or orally once daily at a dose of 0.5 mg/animal for antiandrogenitic activity or 0.2 mg/animal for androgenic activity for 7 days (SD 1 to 7). Compounds were solubilized (when possible) in dimethylsulfoxide (DMSO, 10% final concentration) and administered as suspension in 0.4% methylcellulose. […] One group of animals received the antiandrogen Flutamide as reference. The animals were killed by cervical dislocation under isoflurane anesthesia on the 8th morning following castration. The ventral prostate and seminal vesicles were rapidly dissected and weighed.
# 3. Calculations and Statistical Analysis
# W is the weight of the prostate, the seminal vesicle or levator ani.
# [3] = tested on: rat prostate, seminal vesicle, levator ani muscle; assay: Systemic antiandrogenic activity in orchidectomized immature male rats with DHT implant; type: in vivo; settings: rat +DHT, 0.5 mg/animal daily 7 days; for inhibition in vivo at 0.5 mg: Rattus norvegicus, 168 h
# [4] = Table 3, agonist reported when compound stimulates the cells
# [5] = Table 3, p.o (marked in prostate cell), read-out: % Stimulation Lev.Ani
# [6] = Table 3, p.o (marked in prostate cell), read-out: % Stimulation SV
# [7] = Table 3, p.o, read-out: % Stimulation Prostate
# [8] = Table 3, p.o (marked in prostate cell)
# [9] = Table 3, s.c. or p.o (route not marked)
smiles,measurement,setting,value
Cc1c(N2C(=O)C(C)(C)N(CCCOc3ccc(-n4ccnc4)cc3)C2=S)ccc(C#N)c1Cl [EM-8346],Shionogi Antiandrogenic Activity IC50,[1]; [4],Partial agonist
same,Human Androgen Receptor Binding (%) RBA R1881 = 100,Human Androgen Receptor; Table 3,125%
same,change in vivo at 0.2 mg,[2]; [5],128%
same,change in vivo at 0.2 mg,[2]; [6],40%
same,change in vivo at 0.2 mg,[2]; [7],47%
Cc1c(N2C(=O)C(C)(C)N(CCCOc3ccc(S(=O)(=O)C(C)C)cc3)C2=S)ccc(C#N)c1Cl [EM-8363],Shionogi Antiandrogenic Activity IC50,[1]; [4],Partial agonist
same,Human Androgen Receptor Binding (%) RBA R1881 = 100,Human Androgen Receptor; Table 3,52%
same,change in vivo at 0.2 mg,[2]; [5],85%
same,change in vivo at 0.2 mg,[2]; [6],24%
same,change in vivo at 0.2 mg,[2]; [7],29%
CC(=O)Nc1ccc(OCCCN2C(=S)N(c3ccc(C#N)c(Cl)c3C)C(=O)C2(C)C)cc1 [EM-8362],Shionogi Antiandrogenic Activity IC50,[1]; [4],Partial agonist
same,Human Androgen Receptor Binding (%) RBA R1881 = 100,Human Androgen Receptor; Table 3,66%
same,change in vivo at 0.2 mg,[2]; [5],105%
same,change in vivo at 0.2 mg,[2]; [6],43%
same,change in vivo at 0.2 mg,[2]; [7],33%
CCS(=O)(=O)c1ccc(OCCCN2C(=S)N(c3ccc(C#N)c(Cl)c3C)C(=O)C2(C)C)cc1 [EM-8261],Shionogi Antiandrogenic Activity IC50,[1]; [4],Partial agonist
same,Human Androgen Receptor Binding (%) RBA R1881 = 100,Human Androgen Receptor; Table 3,32%
same,% Inhibition Lev.Ani,[3]; [8],8%
same,% Inhibition SV,[3]; [8],25%
same,% Inhibition Prostate,"[3]; Table 3, p.o",38 p.o %
same,change in vivo at 0.2 mg,[2]; [5],82%
same,change in vivo at 0.2 mg,[2]; [6],26%
same,change in vivo at 0.2 mg,[2]; [7],41%
"C[C@]12CC[C@H]3[C@@H](CCC4=CC(=O)CC[C@@]43C)[C@@H]1CC[C@@H]2O [Testo, reference compound]",IC50,"[1]; Table 3, agonist reported when compound stimulates the cells, read-out: Shionogi Antiandrogenic Activity IC50",0.023 to 0.107 µM
same,% Stimulation Lev.Ani,[2]; [9],171%
same,% Stimulation Prostate,[2]; [9],99%
same,% Stimulation SV,[2]; [9],115%
CCC(c1ccc(OCCCN2C(=S)N(c3ccc(C#N)c(Cl)c3C)C(=O)C2(C)C)cc1)N(C)C (stereo not drawn) [EM-8345],Shionogi Antiandrogenic Activity IC50,[1]; [4],Partial agonist
same,Human Androgen Receptor Binding (%) RBA R1881 = 100,Human Androgen Receptor; Table 3,68%
same,change in vivo at 0.2 mg,[2]; [5],77%
same,change in vivo at 0.2 mg,[2]; [6],18%
same,change in vivo at 0.2 mg,[2]; [7],42%
COc1cc(CNC(C)C)ccc1OCCCN1C(=S)N(c2ccc(C#N)c(C(F)(F)F)c2)C(=O)C1(C)C [EM-7930],IC50,"[1]; Mus musculus, read-out: Shionogi Antiandrogenic Activity IC50, Table 1",0.0095 µM
same,Human Androgen Receptor Binding (%) RBA R1881 = 100,Human Androgen Receptor; Table 1,0.5%
same,inhibition in vivo at 0.5 mg,"[3]; read-out: Lev Ani % inhibition, Table 1, s.c. or p.o. (route not marked), levator ani",41%
same,inhibition in vivo at 0.5 mg,"[3]; read-out: Prostate % inhibition, Table 1, s.c. or p.o. (route not marked in cell)",47%
same,inhibition in vivo at 0.5 mg,"[3]; read-out: SV % inhibition, Table 1, s.c. or p.o. (route not marked), seminal vesicle",71%
CCC(NC1CCCCC1)c1ccc(COCCN2CCN(c3ccc(C#N)c(C(F)(F)F)c3)CC2)cc1 (stereo not drawn) [EM-7727],IC50,"[1]; Mus musculus, read-out: Shionogi Antiandrogenic Activity IC50, Table 2",0.0704 µM
same,Human Androgen Receptor Binding (%) RBA R1881 = 100,Human Androgen Receptor; Table 2,<1.0%
same,inhibition in vivo at 0.5 mg,"[3]; read-out: Lev Ani % inhibition, Table 2, s.c. or p.o. (route not marked), levator ani",0%
same,inhibition in vivo at 0.5 mg,"[3]; read-out: Prostate % inhibition, Table 2, s.c. or p.o. (route not marked)",0%
same,inhibition in vivo at 0.5 mg,"[3]; read-out: SV % inhibition, Table 2, s.c. or p.o. (route not marked), seminal vesicle",8%
